Ends that are not written are not given here.
Tests used:
Assay type in all cases: cell-based, human
HCT116 PTEN null cells = assay: Calcium flux assay (FLUO-4, FDSS/FLIPR); settings: small molecule agonists 10 micromolar, peptide and lipid agonists 1 micromolar
Description: (§1) To screen endogenous receptors and their coupled signaling pathways, we first assembled a GPCR agonist focused library (Table 1). The library consists of 120 GPCR agonists covering over 150 known GPCRs, based on their known pharmacology including polypharmacology. For small molecule chemical agonists, the dose used was 10 micromolar. For peptide agonists, the dose used was 1 micromolar. For lipid agonists, the dose used was also 1 micromolar. For both peptides and lipids, these agonists were suspended in a solution containing 0.05% bovine […] to increase their stability.

HCT116 parental cells = assay: Calcium flux assay (FLUO-4, FDSS/FLIPR); settings: small molecule agonists 10 micromolar, peptide and lipid agonists 1 micromolar
Description: as §1

[1] = test system: HCT116-PTEN Null cell line; assay: Label-free RWG biosensor DMR assay
Description: (§2) EPIC® beta version wavelength interrogation system (Corning Inc., NY) was used for whole cell sensing. This system consists of a temperature-control unit, an optical detection unit, and an on-board liquid handling unit with robotics. The detection unit is centered on integrated fiber optics, and enables kinetic measures of cellular responses with a time interval of ˜15 sec. Also EPIC® commercial systems were used, with a liquid handler accessory attached to EPIC® reader system. Also, an Epic® RWG imager can be used.
(§3) The resonant waveguide grating (RWG) biosensor is capable of detecting minute changes in local index of refraction near the sensor surface and the waveguide thin film having gratings provide a cell culture surface. Since the local index of refraction within a cell is a function of density and its distribution of biomass (e.g., proteins, molecular complexes), the biosensor exploits its evanescent wave to non-invasively detect ligand-induced Dynamic Mass Redistribution (DMR) in native cells. When a cell is stimulated, it responds. That response is a redistribution of biomass in the cell. Upon stimulation, proteins, protein complexes, and/or organelles in the cells move. The evanescent wave extends into the cells and exponentially decays over distance, leading to a characteristic sensing depth of ˜150 nm. Any optical response mediated through receptor activation only represents an average over the portion of the cell that the evanescent wave is sampling. The aggregation of many cellular events downstream to the receptor activation leads to a DMR signal having characteristic kinetics and amplitudes.
(§4) All assays were carried out at a controlled temperature (28° C.). At least two independent sets of experiments, each with at least three replicates, were performed.

[2] = test system: HCT116 parental cell line; assay: Label-free RWG biosensor DMR assay; settings: HCT116 parental
Description: as §2, §3, §4

[3] = test system: Akt, ERK1/2, EGFR, c-Src, STAT3 phosphorylation in HCT116 parental cells; assay: Western blot analysis of key signaling proteins in GPCR signaling; settings: serum-starved, 5 min treatment; for Akt activation (phospho-Akt): SFLLR, SLIGKV 1 μM, S1P, LPA 2.5 μM
[4] = test system: Akt, ERK1/2, EGFR, c-Src, STAT3 phosphorylation in PTEN null cells; assay: as above; settings: serum-starved, 5 min treatment; for Akt activation (phospho-Akt): SFLLR, SLIGKV 1 μM, S1P, LPA 2.5 μM

Compound | Ca^2+ mobilization (fold increase in fluorescence, FLIPR) (HCT116 PTEN null cells) | Ca^2+ mobilization (fold increase in fluorescence, FLIPR) (HCT116 parental cells) | agonist DMR in PTEN deleted cell line compared to parental cell line (sensitivity to PTEN deletion) ([1]; 10 μM agonist (EGF, IGF1 1 μM)) | receptor / signaling pathway activated (pathway deconvolution of DMR with toxins) ([1]; HCT116-PTEN Null, 10 μM agonist) | receptor / signaling pathway activated (pathway deconvolution of DMR with toxins) ([2]; 10 μM agonist) | Akt activation (phospho-Akt) [3] | EGFR activation [4] | Akt activation (phospho-Akt) [4] | agonist-induced DMR signal ([1]; HCT116-PTEN Null, untreated, 10 μM agonist (EGF, IGF1 1 μM)) | potency to trigger DMR, PTEN null vs parental ([1]; dose response, early P-DMR or late P-DMR (50 min poststimulation) amplitudes) | efficacy to trigger DMR, PTEN null vs parental ([1]; dose response, early or late P-DMR event) | agonist-induced DMR signal ([2]; untreated, 10 μM agonist (EGF, IGF1 1 μM)) | level of phosphorylated STAT3 [3] | level of phosphorylated STAT3 [4]
Nc1ncnc2c1ncn2[C@@H]1O[C@H](COP(=O)(O)OP(=O)(O)OP(=O)(O)O)[C@@H](O)[C@H]1O [ATP] | robust Ca^2+ mobilization | robust Ca^2+ mobilization | dramatically different | activates multiple GPCRs and mediates signaling via multiple G proteins | activates multiple GPCRs and mediates signaling via multiple G proteins |  |  |  |  |  |  |  |  | 
CCCCCCCCCCCCC/C=C/[C@@H](O)[C@@H](N)COP(=O)(O)O [S1P, sphingosine-1-phosphate] |  |  |  |  |  | did not activate | did not activate | did not activate |  |  |  |  |  | 
SFLLR-amide | robust Ca^2+ mobilization | robust Ca^2+ mobilization | distinct characteristics |  |  | did not activate |  | did not activate | robust DMR signal | almost identical | higher efficacy | robust DMR signal | significantly increased | significantly increased
SLIGKV-NH2 | robust Ca^2+ mobilization | robust Ca^2+ mobilization |  |  |  | did not activate |  | did not activate |  |  |  |  |  | 
